Data: patent US20200385396A1, “Compond for treatment or prevention of obesity or diseases related to obesity, and application thereof” (SHANGHAI INSTITUTES FOR BIOLOGICAL SCIENCES, CHINESE …, priority 2017, published 2020)

Assays:
[1] = test system: normal-fed mice (Lean); test: Metabolic cage, normal-fed mice (Lean); format: in vivo, mouse; details: for respiratory exchange rate / physical activity: 20 mg/kg
Protocol: (§1) Before starting the metabolic cage experiment, the mice were fed in a single cage for 1 week. After a one-week single cage adaptation period, three days before the start of the small molecule compound injection, the mice were injected with 25 μL of DMSO within 2 hours before turning off the lights every afternoon, allowing them to adapt to the injection for 3 days. After 3 days of injection, the acclimated mice were put into the metabolic cage. Starting from the same day, 25 μL of DMSO and HLY72 (20 mg/kg) were injected within 2 hours before turning off the lights for 3 consecutive days.
(§2) Next, the effect of HLY72 on the metabolism of mice is studied. We use two methods: (1) the relevant metabolic indexes of the mice are directly measured using the metabolic cage, and (2) the expression of the relevant key metabolic genes is detected. three metabolic parameters are obtained through the metabolic cage experiment: (1) Energy expenditure (EE), energy output is an important aspect of energy balance, under conditions such as restricted diet and fasting, mice will reduce basic metabolism, reduce energy expenditure; (2) respiratory exchange ratio (RER), based on the ratio calculated by CO2 produced and the use of 02, RER of 1 means that carbohydrates is mainly used as energy, RER of 0.7 means that fat is mainly used as fuel; (3) physical activity (Activity).

[2] = test system: obese mice fed with high-fat diet (DIO); test: Metabolic cage, obese mice fed with high-fat diet (DIO); format: in vivo, mouse; details: 20 mg/kg
Protocol: as §1, §2

[3] = test system: lipid metabolism related genes; test: Expression of lipid metabolism related genes in tissues (RT-PCR); format: in vivo, mouse; details: 20 mg/kg 3 consecutive days
Protocol: Mice fed with normal diet are injected with 20 mg/kg of HLY72 for 3 consecutive days, and the white adipose tissue (A) is taken to detect fat storage, fatty acid synthesis and decomposition-related gene expression. Liver (B) is taken to detect fatty acid transport and oxidative gene expression. Muscle (C) is taken to test the fatty acid transport and oxidative gene expression (14 mice per group).
After the mice were euthanized, the corresponding tissues were immediately peeled off and quickly frozen with liquid nitrogen and stored at −80° C. For the cell sample in the 6-well petri dish, after removing the culture medium, 1 mL of Trizol was added and placed at room temperature for 10 minutes, then transferred to a 1.5 mL EP tube and stored at −80° C. When extracting tissue RNA, 1.5 mL of Trizol was added to the tissue homogenization tube containing steel balls, the tissue was removed from the −80° C. refrigerator and put into the homogenization tube to homogenize and crush. RNA was extracted by phenol-chloroform-isopropanol method. Using the Superscript™III first strand synthesis system (Invitrogen) kit, 1 μg of mRNA was reverse transcribed into cDNA, and random primers were used for reverse transcription. Quantitative SYBR green PCR kit (Takara) kit was used for quantitative PCR reaction. The instrument for PCR reaction was ABI-QuantStudio 6 Realtime PCR instrument.
After injection of HLY72 in mice, the epididymal white adipose tissue, liver and muscle tissue were taken to detect the expression of lipid metabolism related genes. […] The expression of fatty acid transporter gene FAT (CD36), FATP2, FATP5 on the liver cell membrane is increased, the expression of the transporter gene CPT1A for fatty acid entering the mitochondria and the key enzyme gene ACADM of fatty acid β-oxidation are increased (FIG. 15b). At the same time, the expression of muscle cell membrane fatty acid transporter genes FATP1 and FATP4 are increased, and the expression of the transporter gene CPT1B for fatty acid entering the mitochondria and the key enzyme gene ACADM of fatty acid β-oxidation are increased (FIG. 15c). Changes in gene expression in these tissues indicate that liver and muscle tissues have increased the use of fatty acids.

[4] = Water solubility; format: physicochemical

**Q.** Which results are given for `C=Cc1cccc2c1N(C)Cc1cc3c(cc1-2)OCO3` [HLY72]?
**A.** energy expenditure ([1]; 20 mg/kg once a day, night (dark) and day (light)): significantly reduces; respiratory exchange rate ([1]; at night): significantly reduced; physical activity ([1]; daytime): does not affect; respiratory exchange rate ([1]; during the day): no change; physical activity ([1]; night): decreased; physical activity ([2]; at night): significantly reduced; energy expenditure ([2]; at night and during the day): significantly reduced; respiratory exchange rate compared with the DMSO group ([2]; at night and during the day): significantly reduced; physical activity ([2]; during the day): no change; expression of ACADM ([3]; liver): increased; expression of CPT1A ([3]; liver): increased; expression of FAT (CD36) ([3]; liver): increased; expression of FATP2 ([3]; liver): increased; expression of FATP5 ([3]; liver): increased; expression of ACADM ([3]; muscle): increased; expression of CPT1B ([3]; muscle): increased; expression of FATP1 ([3]; muscle): increased; expression of FATP4 ([3]; muscle): increased; expression of ATGL (lipolytic gene) ([3]; white adipose tissue): increase; expression of DGAT (fat storage gene) ([3]; white adipose tissue): significantly reduced; expression of FAS (fatty acid synthesis gene) ([3]; white adipose tissue): significantly down-regulated; expression of SCD1 (fatty acid synthesis gene) ([3]; white adipose tissue): significantly down-regulated; water solubility [4]: very poor
